Each structure is given as a SMILES string.

One data set has as its system P-gp. To be noted: 20 μM, 96 hours, Caco-2, western blot vs control. How it is done:
Caco-2 cells were seeded in 6 well plates at 10,000 cells/cm^2 for 21 days. Drugs and drug combinations at 20 μM prepared in cell growth medium were added on to the mature cells and exposed for 96 hours. After drug exposure, cells were washed three times using PBS and cell lysate was prepared in lysis buffer. The protein content was quantified using the 96 well micro-Lowry protein assay and regulation of P-gp was determined using western blotting.
The membrane was blocked using 2% casein in TBS and washed with TBST. The primary antibody; Mdr (G-1) mouse monoclonal IgG2b 200 and mouse anti-β actin were used as the antibody for β-actin, the reference protein. The antibody; HRP linked goat anti mouse IgG was used as the secondary antibody. The washed membrane was incubated in a BioRad clarity chemiluminescent substrate and enhancer was read and semi quantified using the BIORAD Chemidoc MPT imager with Image LabTM software.
A general note: A western blot detects proteins with antibodies after separation by electrophoresis.

The target in another data set is T1, P-glycoprotein (P-gp) (Homo sapiens, UniProt P08183).
T1 construct: In-vitro Caco-2 cell monolayers were used here as a model for potential drug absorption related problems and P-gp mediated transport of drugs; endogenous in cells; host or cells: Caco-2 (human colon carcinoma, ATCC)
T1 sequence (P08183 whole entry): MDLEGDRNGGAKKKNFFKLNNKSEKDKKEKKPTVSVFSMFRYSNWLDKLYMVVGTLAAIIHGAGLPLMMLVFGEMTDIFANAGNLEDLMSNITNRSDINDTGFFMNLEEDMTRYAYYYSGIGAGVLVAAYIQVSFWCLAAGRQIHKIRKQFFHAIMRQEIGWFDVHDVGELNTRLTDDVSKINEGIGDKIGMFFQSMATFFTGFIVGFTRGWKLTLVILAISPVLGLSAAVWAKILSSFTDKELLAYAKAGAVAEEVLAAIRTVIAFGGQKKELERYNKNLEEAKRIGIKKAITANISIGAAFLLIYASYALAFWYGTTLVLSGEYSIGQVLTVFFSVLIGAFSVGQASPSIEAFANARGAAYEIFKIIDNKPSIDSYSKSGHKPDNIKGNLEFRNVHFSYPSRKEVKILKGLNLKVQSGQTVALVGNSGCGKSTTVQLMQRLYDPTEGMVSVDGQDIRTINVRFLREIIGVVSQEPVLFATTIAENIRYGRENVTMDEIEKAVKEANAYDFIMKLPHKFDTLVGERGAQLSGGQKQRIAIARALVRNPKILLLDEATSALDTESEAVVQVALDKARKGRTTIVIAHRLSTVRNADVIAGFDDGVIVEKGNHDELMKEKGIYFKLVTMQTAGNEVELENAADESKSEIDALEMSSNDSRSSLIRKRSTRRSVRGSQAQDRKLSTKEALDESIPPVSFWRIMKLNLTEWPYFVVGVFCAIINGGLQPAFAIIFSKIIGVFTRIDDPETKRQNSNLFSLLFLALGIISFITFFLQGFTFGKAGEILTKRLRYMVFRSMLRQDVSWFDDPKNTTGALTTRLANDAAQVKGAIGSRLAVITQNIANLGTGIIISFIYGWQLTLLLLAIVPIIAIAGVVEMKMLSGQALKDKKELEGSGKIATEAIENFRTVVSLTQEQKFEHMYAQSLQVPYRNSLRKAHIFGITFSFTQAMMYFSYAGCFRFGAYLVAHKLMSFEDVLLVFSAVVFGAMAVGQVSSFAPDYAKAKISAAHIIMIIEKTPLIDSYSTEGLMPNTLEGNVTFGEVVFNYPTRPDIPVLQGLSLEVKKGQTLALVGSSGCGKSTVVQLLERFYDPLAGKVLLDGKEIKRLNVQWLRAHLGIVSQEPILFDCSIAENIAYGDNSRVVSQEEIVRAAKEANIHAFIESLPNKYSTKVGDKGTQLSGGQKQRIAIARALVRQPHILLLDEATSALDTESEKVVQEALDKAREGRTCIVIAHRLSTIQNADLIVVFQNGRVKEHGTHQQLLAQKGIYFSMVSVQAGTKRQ
Briefly: Bidirectional transport of rhodamine123 through Caco-2 monolayers co-incubated with antimalarials (P-gp inhibitory properties). Format: in vitro ADME. Conditions: at 100 μM. How it is done:
The Caco-2 cells were seeded on 0.6 cm^2 […] Millipore PCF™ filter inserts at the cell density of 65,000 cells/cm^2 as done previously in the lab. Briefly, the cells were grown for 21–24 days to allow full maturation and formation of tight monolayers. The initial experiments were conducted in mid-40s passage cells and repeated in early 80s passage Caco-2 cells. The Trans epithelial electrical resistance (TEER) was measured immediately before and after the experiment using an epithelial voltage/ohm meter and an ENDOHM 12 chamber (World precision instruments, Sarasota, FL). TEER values were measured both before and after the study with readings above 300 Ω.cm^2 considered as acceptable for tight junctions. […] In order to maintain equivalent transport medium (HBSS/HBSS with inhibitor) level both outside and inside the chambers, 300 μL was used as medium in the apical chambers and 600 μL in the basolateral chambers. […] Drugs were co-incubated with MRCP, BCRP and ATP hydrolysis blockers to determine the involvement of other efflux mechanisms. Prior to the experiment, the transport medium, HBSS or HBSS with P-gp inhibitors were pre-incubated with the cells for 30 minutes. Following incubation, inserts were placed in new well plates and donor chamber is replaced with drug or drug with inhibitor and the receiver chamber with blank HBSS or HBSS with inhibitor. Transport medium was collected from the receiver chamber after stirring at time intervals of 30, 60, 90 and 120 minutes and was replaced with the same volume of fresh HBSS, or HBSS with inhibitor, when P-gp inhibitors were used in the study. At the end of the experiment 100 μL of medium was removed from the donor chamber in addition to medium collected from the receiver chamber during the study. The cells were then washed thoroughly in cold (4°C) PBS and cell membranes attached to the inserts were sonicated for 10 minutes in a sonicating water bath and centrifuged at 10,000 g for 10 minutes. Supernatant was frozen at -80°C until assayed. The Papp values of three well plates were determined using methods modified from Artursson’s group as described by Crowe and Lemaire.
CL.vol=Aa/{[Cd0×Vd−[Aa+(Ca×Vs)]−(Ac)×n/nfin]/Vd}
CL.vol = clearance volume (mL), n = time (min), Aa = amount in acceptor compartment at time n (pmols), Cd0 = concentration in donor compartment at time zero (nM), Vd = volume of the donor compartment (mL), Ca = concentration in acceptor compartment at the previous time point (nM), Vs = sample volume of previous time point (mL), Ac = amount of compound associated with the cells (pmol), Nfin = final time point (min). Papp = Apparent permeability (cm/sec) Rate of clearance (mL/min)=CL.vol / n Papp (cm/sec)=Rate of clearance / Surface area (cm^2)
The cleared volume was plotted against time and the slope of the regression line was divided by the surface area to obtain the Papp values. […] Mean Papp for Bas-Ap direction was divided by the Ap-Bas direction to obtain the efflux ratio and values above two were considered as drugs having true efflux transport.

A word on the inhibition: it is the percentage by which the read-out fell short of the control. Consider `OC(c1cc(C(F)(F)F)nc2c(C(F)(F)F)cccc12)C1CCCCN1` (stereo not drawn) [MQ, mefloquine], for which the “regulation of P-gp expression” value with P-gp was “not observed”. Further, the P-gp inhibitory properties result at P-glycoprotein (P-gp) was “P-gp inhibitory properties”. Also, the inhibition at 120 min, 100 µM at P-glycoprotein (P-gp) (human, Caco-2 cell monolayers, probe rhodamine 123, read-out: inhibition of efflux driven transport) was around 50%.

The values above are taken from publication PMC4821601, “The Interactions of P-Glycoprotein with Antimalarial Drugs, Including Substrate Affinity, Inhibition and Regulation” (PLoS ONE, 2016).
